The source of these data is publication PMC5602538, “Assessment of the Drug Interaction Potential of Unconjugated and GalNAc3-Conjugated 2′-MOE-ASOs” (Molecular Therapy. Nucleic Acids, 2017).

e = 2'-O-(2-methoxyethyl) (MOE); d = 2'-deoxy (DNA)

The test system of the series is T1, BSEP.
T1 construct: purchased Life Technologies; host or cells: Sf9 cells (membrane vesicles)
Briefly: BSEP inhibition study in Sf9 membrane vesicles. In kind it is in vitro ADME. As to conditions: 100 μM ASO, 1 μM taurocholate. The procedure: The test system included a 96-well flat bottom plate containing a suspension of vesicles and a 96-well glass fiber filtration plate. Transport experiments were initiated with the addition of Mg-ATP (for ATP-dependent BSEP uptake) or AMP (non-ATP-dependent uptake) to appropriate wells. Preparation of the flat-bottom plates included incubation with blocking buffer for 60 min at 37°C with orbital shaking at 120 rpm. After 60 min, the blocking buffer was completely removed and assay uptake buffer solutions were added. For BSEP inhibition studies, solutions contained 1 μM [^3H]-taurocholic acid as a substrate and either assay vehicle, test article (at 100 μM), or reference inhibitor (300 μM rifampicin). For BSEP substrate studies, solutions contained either 1 μM [^3H]-taurocholic acid or 10 μM test article. […] These samples were counted using a 1450 Microbeta (Perkin-Elmer). […] The test article was quantitated by LC-MS.
Signal to noise for the BSEP probe substrate was calculated by dividing the uptake of the probe substrate in BSEP-expressing vesicles in the presence of ATP by the uptake of the BSEP substrate in the vesicles in the presence of AMP. Percent inhibition in the presence of the test article or the reference inhibitors was calculated as: %inhibition=100−(100×(ATP−dependent,transportor−mediatedaccumulation)withinhibitor/(ATP−dependent,transportor−mediatedaccumulation)withoutinhibitor).

For the substance “ISIS 304801: 20-mer (5-10-5) 2′-MOE gapmer PS backbone antisense inhibitor of apoC-III, sequence AGCTTCTTGTCCAGCTTTAT (sugars from the 5' end e5 d10 e5, all phosphorothioate, methylation of C not given here)”, the “Enhancement of probe substrate uptake, BSEP” value came to 21.0%.
